From patent publication US20240083857A1, “2-Methyl-Quinazolines” (Bayer Pharma Aktiengesellschaft, priority 2017, published 2024) come the findings set out here.

Assay [1] concerns the target human SOS1 (nucleotide exchange of K-Ras^G12C) (Homo sapiens, UniProt Q07889). The assay can be described thus: Biochemical assay 2: K-Ras^G12C activation assay by hSOS1 at high GTP concentration (HTRF). The note with it: E-notation values; unit inferred; 50 μM GTP; read-out: Assay 2 (KRAS-Activation, high GTP) IC50.
For assay [2], the target named is K-Ras^G12C : hSOS1 interaction (Homo sapiens, UniProt Q07889). Kind of assay: Biochemical assay 1: K-Ras^G12C interaction assay with hSOS1 (HTRF). Particulars: E-notation values; unit inferred; read-out: Assay 1 (KRAS-SOS interaction) IC50. Type of assay: binding. In general terms: In TR-FRET formats the signal depends on donor and acceptor labels being close together.

pIC50: −log10 of the molar value. Where only a bound is given, the exact number is not on record here.

As to `COc1cc2nc(C)nc(N[C@H](C)c3cccc(-c4ccccc4CC(N)=O)c3)c2cc1OC` [Example 393, 2-(3′-{(1R)-1-[(6,7-dimethoxy-2-methylquinazolin-4-yl)amno]ethyl}biphenyl-2-yl)acetamide], the pIC50 in assay [1] was 6.01; in assay [2] it was 6.61.

`COc1cc2nc(C)nc(NC(C)c3ccc(-c4ccccc4CC(N)=O)s3)c2cc1OC` (centres unmarked) [Example 394, 2-[2-(5-{1-[(6,7-dimethoxy-2-methylquinazolin-4-yl)amino]ethyl}thiophen-2-yl)phenyl]acetamide]: the negative-log IC50 (pIC50) in assay [1] is 5.79; in assay [2], 6.39.

Take `COc1cc2nc(C)nc(NC(C)c3ccc(-c4ccc(O)nc4)s3)c2cc1OC` (centres unmarked) [Example 395, 5-(5-{1-[(6,7-dimethoxy-2-methylquinazolin-4-yl)amino]ethyl}thiophen-2-yl)pyridin-2-ol]: the results for the pIC50 in assay [1] and in assay [2] were 5.97 and 6.01, respectively.

Take `COc1cc(C)c2nc(C)nc(N[C@H](C)c3cccc(Cl)c3)c2c1` [Example 396, N-[(1R)-1-(3-chlorophenyl)ethyl]-6-methoxy-2,8-dimethylquinazolin-4-amine]: the pIC50 in assay [1] was 5.94; in assay [2], 5.65.

For the compound `COc1cc2nc(C)nc(NC(C)c3ccc(-c4cccc(Cl)c4CN)s3)c2cc1OC` (centres unmarked) [Example 397, N-[1-{5-[2-(aminomethyl)-3-chlorophenyl]thiophen-2-yl}ethyl]-6,7-dimethoxy-2-methylquinazolin-4-amine], the values for the pIC50 in assay [1] and in assay [2] were 6.68 and 6.53, respectively.

`COc1cc2nc(C)nc(NC(C)c3ccc(-c4ccc(Cl)cc4CN)s3)c2cc1OC` (centres unmarked) [Example 398, N-[1-{5-[2-(aminomethyl)-4-chlorophenyl]thiophen-2-yl}ethyl]-6,7-dimethoxy-2-methylquinazolin-4-amine]: the pIC50 is 7.20 in assay [1] and 6.98 in assay [2].

Take `COc1cc2nc(C)nc(NC(C)c3cc(C)c(-c4ccc(F)cc4CN)s3)c2cc1OC` (centres unmarked) [Example 399, N-(1-{5-[2-(aminomethyl)-4-fluorophenyl]-4-methyl-2-thienyl}ethyl)-6,7-dimethoxy-2-methylquinazolin-4-amine]: the negative-log IC50 (pIC50) in assay [1] was 6.72; in assay [2], 6.48.

`COc1cc2nc(C)nc(NC(C)c3cc(C)c(-c4ccccc4CN(C)C)s3)c2cc1OC` (centres unmarked) [Example 400, N-[1-(5-{2-[(dimethylamino)methyl]phenyl}-4-methyl-2-thienyl)ethyl]-6,7-dimethoxy-2-methylquinazolin-4-amine]: the pIC50 was 7.16 in assay [1] and 7.10 in assay [2].

On to `COc1cc2nc(C)nc(NC(C)c3cc(C)c(-c4ccccc4CN(C)CCO)s3)c2cc1OC` (centres unmarked) [Example 401, 2-{[2-(5-{1-[(6,7-dimethoxy-2-methylquinazolin-4-yl)amino]ethyl}-3-methyl-2-thienyl)benzyl](methyl)amino}ethanol], for which the pIC50 is 7.19 in assay [1] and 7.12 in assay [2].

`CNCc1ccccc1-c1sc(C(C)Nc2nc(C)nc3cc(OC)c(OC)cc23)cc1C` (centres unmarked) [Example 402, 6,7-di methoxy-2-methyl-N-[1-(4-methyl-5-{2-[(methylamino)methyl]phenyl}thiophen-2-yl)ethyl]quinazolin-4-amine]: the negative logarithm of the IC50 (pIC50) was 7.12 in assay [1] and 7.08 in assay [2].

On to `COc1cc2nc(C)nc(NC(C)c3ccc(-c4ccccc4C(O)CO)s3)c2cc1OC` (centres unmarked) [Example 403], for which the negative logarithm of the IC50 (pIC50) in assay [1] is 6.26; in assay [2], 6.35.

As to `Cc1ccc2nc(C)nc(N[C@H](C)c3cccc(Cl)c3)c2c1` [Example 404, N-[(1R)-1-(3-chlorophenyl)ethyl]-2,6-dimethylquinazolin-4-amine], the pIC50 in assay [1] is 5.84; in assay [2], 5.33.

Turning to `Cc1nc(N[C@H](C)c2cccc(Cl)c2)c2cc(-c3cn[nH]c3)ccc2n1` [Example 405, N-[(1R)-1-(3-chlorophenyl)ethyl]-2-methyl-6-(1H-pyrazol-4-yl)quinazolin-4-amine], the negative logarithm of the IC50 (pIC50) in assay [1] is 6.35; in assay [2], 5.95.

Turning to `Cc1nc(N[C@H](C)c2cccc(Cl)c2)c2cc(-c3cnn(C)c3)ccc2n1` [Example 406, N-[(1R)-1-(3-chlorophenyl)ethyl]-2-methyl-6-(1-methyl-1H-pyrazol-4-yl)quinazolin-4-amine], the values for the pIC50 in assay [1] and in assay [2] were 6.40 and 6.14, respectively.

Regarding `Cc1nc(N[C@H](C)c2cccc(Cl)c2)c2cc(C3CC3)ccc2n1` [Example 407, N-[(1R)-1-(3-chlorophenyl)ethyl]-6-cyclopropyl-2-methylquinazolin-4-amine], the negative logarithm of the IC50 (pIC50) was 5.97 in assay [1] and 5.90 in assay [2].

In the case of `COc1cc2nc(C)nc(NC(C)c3ccc(-c4c(Cl)cccc4CNC(=O)OC(C)(C)C)s3)c2cc1OC` (centres unmarked) [Example 408, tert-butyl [3-chloro-2-(5-{1-[(6,7-dimethoxy-2-methylquinazolin-4-yl)amino]ethyl}thiophen-2-yl)benzyl]carbamate], the negative-log IC50 (pIC50) was 6.25 in assay [1] and 6.27 in assay [2].

With `COc1cc2nc(C)nc(NC(C)c3ccc(-c4c(Cl)cccc4CN)s3)c2cc1OC` (centres unmarked) [Example 409, N-[1-{5-[2-(aminomethyl)-6-chlorophenyl]thiophen-2-yl}ethyl]-6,7-dimethoxy-2-methylquinazolin-4-amine], the negative logarithm of the IC50 (pIC50) is 7.55 in assay [1] and 7.31 in assay [2].

As for `COc1cc2nc(C)nc(NC(C)c3ccc(-c4ccnc(O)c4)s3)c2cc1OC` (centres unmarked) [Example 410, 4-(5-{1-[(6,7-dimethoxy-2-methylquinazolin-4-yl)amino]ethyl}-2-thienyl)pyridin-2-ol], the pIC50 in assay [1] is 5.55; in assay [2], 5.37.

On to `COc1cc2nc(C)nc(NC(C)c3ccc(-c4ccccc4C4CC(=O)N4)s3)c2cc1OC` (centres unmarked) [Example 411, 4-[2-(5-{1-[(6,7-dimethoxy-2-methylquinazolin-4-yl)amino]ethyl}thiophen-2-yl)phenyl]azetidin-2-one], for which the figures for the pIC50 in assay [1] and in assay [2] were less than 4.70 and 4.84, respectively.

On to `COc1cc2nc(C)nc(NC(C)c3ccc(-c4ccc(C#N)cc4CN(C)C)s3)c2cc1OC` (centres unmarked) [Example 413, 4-(5-{1-[(6,7-dimethoxy-2-methylquinazolin-4-yl)amino]ethyl}thiophen-2-yl)-3-[(dimethylamino)methyl]benzonitrile], for which the pIC50 in assay [1] was 6.58; in assay [2], 6.65.

For the compound `Cc1nc(NC(C)c2ccc(Br)s2)c2cc(N3CCC(N(C)C)C3)ccc2n1` (centres unmarked) [Example 414, N-[1-(5-bromothiophen-2-yl)ethyl]-6-[3-(dimethylamino)pyrrolidin-1-yl]-2-methylquinazolin-4-amine], the figures for the pIC50 in assay [1] and in assay [2] were 5.91 and 5.86, respectively.

As to `Cc1nc(NC(C)c2ccc(Br)s2)c2cc(N3CCN(C)CC3)ccc2n1` (centres unmarked) [Example 416, N-[1-(5-bromothiophen-2-yl)ethyl]-2-methyl-6-(4-methylpiperazin-1-yl)quinazolin-4-amine], the figures for the negative-log IC50 (pIC50) in assay [1] and in assay [2] were 6.16 and 6.06, respectively.

Take `Cc1nc(NC(C)c2ccc(-c3ccccc3CN(C)C)s2)c2cc(N3CCN(C)CC3)ccc2n1` (centres unmarked) [Example 417, N-[1-(5-{2-[(dimethylamino)methyl]phenyl}thiophen-2-yl)ethyl]-2-methyl-6-(4-methylpiperazin-1-yl)quinazolin-4-amine]: the pIC50 was 7.54 in assay [1] and 7.34 in assay [2].

In the case of `Cc1nc(NC(C)c2ccc(-c3ccccc3CN(C)C)s2)c2cc(N3CCC(N(C)C)C3)ccc2n1` (centres unmarked) [Example 418, N-[1-(5-{2-[(dimethylamino)methyl]phenyl}thiophen-2-yl)ethyl]-6-[3-(dimethylamino)pyrrolidin-1-yl]-2-methylquinazolin-4-amine], the results for the pIC50 in assay [1] and in assay [2] were 7.40 and 7.06, respectively.

Turning to `Cc1nc(NC(C)c2ccc(Br)s2)c2cc(N3CCCC3)ccc2n1` (centres unmarked) [Example 419, N-[1-(5-bromothiophen-2-yl)ethyl]-2-methyl-6-(pyrrolidin-1-yl)quinazolin-4-amine], the results for the pIC50 in assay [1] and in assay [2] were 5.43 and 5.19, respectively.

As for `CC(=O)Nc1ccc2nc(C)nc(NC(C)c3ccc(-c4ccccc4CN(C)C)s3)c2c1` (centres unmarked) [Example 420, N-(4-{[1-(5-{2-[(dimethylamino)methyl]phenyl}thiophen-2-yl)ethyl]amino}-2-methylquinazolin-6-yl)acetamide], the negative logarithm of the IC50 (pIC50) in assay [1] was 6.42; in assay [2], 6.52.

For the compound `COc1ccc(-c2ccc(C(C)Nc3nc(C)nc4cc(OC)c(OC)cc34)s2)c(C)c1` (centres unmarked) [Example 422, 6,7-dimethoxy-N-{1-[5-(4-methoxy-2-methylphenyl)thiophen-2-yl]ethyl}-2-methylquinazolin-4-amine], the pIC50 is 6.04 in assay [1] and 5.83 in assay [2].

Regarding `Cc1nc(NC(C)c2ccc(-c3ccccc3CN(C)C)s2)c2cc(N)ccc2n1` (centres unmarked) [Example 423, N4-[1-(5-{2-[(dimethylamino)methyl]phenyl}-2-thienyl)ethyl]-2-methylquinazoline-4,6-diamine], the values for the negative-log IC50 (pIC50) in assay [1] and in assay [2] were 6.73 and 6.69, respectively.

As to `Cc1nc(NC(C)c2ccc(Br)s2)c2cc(N3CCN(Cc4cccnc4)CC3)ccc2n1` (centres unmarked) [Example 424, N-[1-(5-bromothiophen-2-yl)ethyl]-2-methyl-6-[4-(pyridin-3-ylmethyl)piperazin-1-yl]quinazolin-4-amine], the pIC50 in assay [1] is 5.85; in assay [2], 5.80.

`Cc1nc(NC(C)c2ccc(Br)s2)c2cc(NCCN3CCOCC3)ccc2n1` (stereo not drawn) [Example 425, N4-[l-(5-bromo-2-thienyl)ethyl]-2-methyl-N6-[2-(morpholin-4-yl)ethyl]quinazoline-4,6-diamine]: the figures for the negative-log IC50 (pIC50) in assay [1] and in assay [2] were 5.59 and 5.24, respectively.

Regarding `Cc1nc(NC(C)c2ccc(-c3ccccc3CN(C)C)s2)c2cc(N3CCN(Cc4cccnc4)CC3)ccc2n1` (centres unmarked) [Example 426, N-[1-(5-{2-[(dimethylamino)methyl]phenyl}thiophen-2-yl)ethyl]-2-methyl-6-[4-(pyridin-3-ylmethyl)piperazin-1-yl]quinazolin-4-amine], the pIC50 in assay [1] was 7.64; in assay [2], 7.48.

As a reminder, the pIC50 is the IC50 on a negative log10 scale, so that one unit is a factor of ten.
